Experimental findings from a melting point compilation (Tetko et al.; mined from patent text by program, amines drawn as free bases though some values may be those of a salt) are described below.

A word on the melting point: it is the temperature, or range, at which the solid turns liquid. For the compound `Cc1c(N[C@@H](c2nnc(-c3ccc(F)c(O)c3)o2)[C@H](C)O)ccc(C#N)c1Cl`, the melting point is 103 to 108 °C. In the case of `Cn1c2cc(Cl)ccc2c2c(=O)[nH]c(-c3ccncc3)nc21` it was > 300 °C. The compound `CCOC(=O)c1[nH]cc2c1C1C=CC2CC1` (centres undefined) gave a melting point of 129 to 130 °C. The compound `COC(=O)c1c(C(=O)OC)c(-c2ccccc2)n2c1Cc1ccccc1-2` gave a melting point of 149 to 151 °C.
